In patent US20100022514A1, “Heterocycle Compounds and Methods of Use Thereof” (NORVARTIS AG, priority 2006, published 2010):

Assays:
[1] = target: T1, HDAC-1 (Homo sapiens, UniProt Q13547); assay: Deacetylase fluorescence assay (HDAC-1); format: biochemical; conditions: read-out: HDAC-1 IC50
T1 construct: made in house
In short: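 Flag-tagged HDAC-1 immunopurified from overexpressing 293-derived cells was assayed in 25 mM Tris-HCl pH 8.0, 137 mM NaCl, 2.7 mM KCl, 1 mM MgCl2 with Fluor de Lys substrate (50 uM) and inhibitor. Deacetylation was read by fluorescence after trypsin developer containing TSA.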

[2] = test system: p21 promoter (p21-luc) in H1299 cells; assay: p21 promoter luciferase assay using stably transfected p21-luc in H1299 cells; format: cell-based; conditions: Homo sapiens, NCI-H1299
In short: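 H1299 cells stably carrying a p21 promoter–luciferase reporter, grown in RPMI 1640/10% FBS under Geneticin selection, seeded about 5000 cells/well and incubated overnight at 37 C. Compound exposure lasted one day. Cells were then lysed and luciferase luminescence measured.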

T1 sequence (Q13547 whole entry): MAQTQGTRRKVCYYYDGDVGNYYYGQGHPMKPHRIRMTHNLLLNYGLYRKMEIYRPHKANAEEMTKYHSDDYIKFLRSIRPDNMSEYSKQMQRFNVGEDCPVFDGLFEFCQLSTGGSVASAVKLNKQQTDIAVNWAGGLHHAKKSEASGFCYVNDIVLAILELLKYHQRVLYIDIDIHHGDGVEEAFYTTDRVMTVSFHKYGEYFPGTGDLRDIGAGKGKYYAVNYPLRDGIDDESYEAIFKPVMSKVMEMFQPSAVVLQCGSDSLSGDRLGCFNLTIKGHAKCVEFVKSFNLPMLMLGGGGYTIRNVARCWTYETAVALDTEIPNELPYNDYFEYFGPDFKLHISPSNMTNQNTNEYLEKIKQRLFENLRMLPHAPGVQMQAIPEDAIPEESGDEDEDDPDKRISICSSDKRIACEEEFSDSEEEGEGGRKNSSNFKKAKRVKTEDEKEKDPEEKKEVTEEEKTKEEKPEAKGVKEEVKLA

Row | Compound | IC50 [1] [nM] | AC50 [2] [nM]
1 | COc1cccc(S(=O)(=O)N2CCc3cc(CCC(=O)NO)ccc3C2)c1 [Example 84, N-Hydroxy-3-[2-(3-methoxy-benzenesulfonyl)-1,2,3,4-tetrahydro-isoquinolin-6-yl]-propionamide] | 100 to 1000 | > 1000
2 | Cc1[nH]c2ccccc2c1CCN1CCCc2cc(/C=C/C(=O)NO)ccc2C1 [Example 41, (E)-N-Hydroxy-3-{2-[2-(2-methyl-1H-indol-3-yl)-ethyl]-2,3,4,5-tetrahydro-1H-benzo[c]azepin-7-yl}-acrylamide] | < 100 | > 1000
3 | O=C(/C=C/c1ccc2c(c1)CN(CCc1ccccc1)CC2)NO [Example 44, (E)-N-Hydroxy-3-(2-phenethyl-1,2,3,4-tetrahydro-isoquinolin-7-yl)-acrylamide] | 100 to 1000 | > 1000
4 | COc1ccc(C(=O)N2CCc3cc(/C=C/C(=O)NO)ccc3C2)cc1 [Example 89, (E)-N-Hydroxy-3-[2-(4-methoxy-benzoyl)-1,2,3,4-tetrahydro-isoquinolin-6-yl]-acrylamide] | 100 to 1000 | > 1000
5 | O=C(/C=C/c1ccc2c(c1)CN(C(=O)C1CCCCC1)C2)NO [Example 21, (E)-3-(2-Cyclohexanecarbonyl-2,3-dihydro-1H-isoindol-5-yl)-N-hydroxy-acrylamide] | 100 to 1000 | > 1000
6 | O=C(/C=C/c1ccc2c(c1)CN(C(=O)c1cccs1)C2)NO [Example 18, (E)-N-Hydroxy-3-[2-(thiophene-2-carbonyl)-2,3-dihydro-1H-isoindol-5-yl]-acrylamide] | < 100 | > 1000
